Measurements published in patent publication US6482859B1, “Microbicidal N-sulfonylglycin alkynyloxyphenethyl amide derivatives” (priority 1997, dated 2002).

- melting point: 131 to 133 °C
Structure (SMILES): CCCS(=O)(=O)N[C@H](C(=O)NCCc1ccc(OCC#Cc2ccc(Cl)cc2)c(OC)c1)C(C)C [Compound 1.204, (S)-2-(Propylsulfonyl-amino)-3-methyl-butyric acid N-[2-{3-methoxy-4-(3-(4-chlorophenyl)-2-propyn-1-yloxy)-phenyl}-ethyl]-amide]
